“And” between values parts separate entries of the source, which are not always exact repeats. Equal values may be shown once.
Columns and labels:
FCGR1a = test: Quantitative RT-PCR, unsorted mononuclear cells, FCGR1A; assay type: cell-based, human
Protocol: (§1) To evaluate the effect of MGBG on gene expression, blood samples were obtained from patients (N=18, 10 HIV-infected and 8 Healthy Controls). Mononuclear cells were isolated via Percoll gradient centrifugation. The cells were split into two tubes, one treated with 10 μM of MGBG and the other non-treated. The cells were then cultured overnight in RPMI media plus 10% fetal bovine serum at 37 C under non-adherent conditions, collected, lysed using Trizol solution, and total RNA prepared according to manufacturer's instructions (Invitrogen, Carlsbad, Calif.).
(§2) Approximately 200 ng of total RNA prepared from each sample was converted to cDNA using the First Strand cDNA Synthesis Kit for RT-PCR [AMV] kit (Roche Applied Diagnostics, Indianapolis, Ind.) according to manufacturer's instructions. Around 5 ng of cDNA sample was then used for PCR performed on a LightCycler (Roche Applied Diagnostics, Indianapolis, Ind.) using the LightCycler FastStart DNA Master SYBR Green I kit. PCR conditions are as follows: 1 cycle of denaturation at 95° C. for 10 minutes, followed by 45 cycles of 95° C. for 10 seconds, 68° C. for 10 seconds, and 72° C. for 16 seconds.
(§3) The sequences of gene-specific primers evaluated are listed below. All samples were also amplified with the human β-actin LightCycler-Primer set (Roche Diagnostics).

Human Osteopontin (OPN) = test: Osteopontin ELISA of PBMC cell culture supernatants (CCS); assay type: cell-based; conditions: for average OPN level in CCS: fifth day
Source text: Peripheral Blood Mononuclear Cells (PBMCs) were isolated from patients diagnosed with Amyotrophic Lateral Sclerosis (ALS), Alzheimer's Disease (AD), Human Immunodeficiency Virus (HIV), Breast Cancer, AIDS Dementia, and healthy donors. The heparinised blood was mixed with equal volumes of sterile phosphate-buffered saline (Ca^++, Mg^++ free PBS) and layered over Percoll (Amersham Biosciences, Piscataway, N.J.) at 1.087 g/ml. The cells were centrifuged and the mononuclear cell layer was collected. The PBMCs were cultured in a concentration of 1×10^6 cells/ml in non-adherent conditions in polypropylene tubes containing complete media (RPMI 1640, 10% fetal bovine serum (HyClone, Logan, Utah), 1% Sodium Pyruvate) and incubated in a 5% CO2, 37° C. humidified incubator. The cells were grown in the presence of 0 μM, 0.1 μM, 1 μM, 10 μM, or 100 μM MGBG plus complete media and the cell culture supernatants (CCS) were isolated on the fifth day and frozen at −20° C. until ready to be tested. Human Osteopontin (OPN) levels were measured with the Human Osteopontin ELISA kit (R&D Systems, Inc., Minneapolis, Minn.) according to manufacturer's instructions. The CCS were tested in duplicate and the Magellan v. 4.0 software (Salzburg, Austria) was used to analyze the results. The average OPN levels (ng/ml) in 0 μM, 0.1 μM, 1 μM, 10 μM, and 100 μM MGBG were measured. The results are depicted in FIGS. 3-7 as a graph comparing diseased sample with normal sample. […] The solid lines represent diseased cells and the dashed lines represent normal cells.

GPR43 = test: QRT-PCR in CD14/CD16-separated cell fractions, GPR43 RNA; assay type: cell-based, human; conditions: CD14/CD16++ macrophages, 10 μM MGBG, p=0.03
Protocol: The changes induced by MGBG in different blood cell types were determined for osteopontin and adenosine deaminase and 7 other genes. For this experiment, blood samples were obtained from 6 healthy controls (3 men/3 women from 20 to 55 years of age) and mononuclear cells were isolated via Percoll gradient centrifugation. The cells were then incubated for 3 hours in RPMI media plus 10% fetal bovine serum at 37 C. At that point MGBG was added to 10 μM to half of each sample and then the cells were incubated at 37 C for 20 more hours. The cells were then bound to magnetic beads coated with antibodies to human CD16. Bound cells (CD16 expressing) were separated from unbound cells using an AutoMACs according to manufacturer's instructions (Miltenyi, Auburn Calif.). Then CD16+ cells are released from the magnetic beads and both the CD16+ and CD16− cells are combined with magnetic beads coated with antibodies to human CD14. Antibody bound and unbound cells were then separated using the AutoMACs machine. […] Cells that neither express CD16 nor CD14 (the −/− Cells). This is mostly T lymphocytes; 2. Cells that only express CD16. This includes contaminating granulocytes not removed by Percoll centrifugation and CD16+ monocytes with very low CD14 expression; 3. […] After separation, cells of each fraction are washed with PBS and the number of viable cells determined by trypan blue exclusion. […]

G1P3 = test: Quantitative RT-PCR, unsorted mononuclear cells, G1P3; assay type: cell-based, human
Protocol: as §1, §2, §3

ADA = test: Quantitative RT-PCR, unsorted mononuclear cells, ADA; assay type: cell-based, human
Protocol: as §1, §2, §3

IL6 = test: Quantitative RT-PCR, unsorted mononuclear cells, IL6; assay type: cell-based, human
Protocol: as §1, §2, §3

SIVmac251 = test: SIV-infected, CD8-depleted rhesus macaques treated with MGBG: disease; assay type: in vivo
Protocol: These monkeys were then treated with MGBG as described.

[1] = 10 μM MGBG overnight, individual samples
[2] = 10 μM MGBG, all unsorted samples

Q: How did the “Fold change FCGR1A by QRT-PCR” value (FCGR1a; [1]) turn out when `CC(/C=N/NC(=N)N)=N\NC(=N)N` [MGBG, 1,1′ [methylethanediylidene]dinitrilodiguanidine] was run?
A: The value was −1.61 fold and −1.84 fold and −1.01 fold and −1.72 fold and −3.73 fold and 1.72 fold and 5.94 fold and 2.39 fold and −1.97 fold and 19.03 fold and 1.16 fold and −0.41 fold and −0.43 fold and −10.78 fold and −17.15 fold and −2.22 fold and −3.86 fold and 1.05 fold.

Q: What about the “FCGR1A AVERAGE” value (FCGR1a; 10 μM MGBG, all samples) of the same molecule?
A: The value was 2.25 fold.

Q: What about the “FCGR1A MAX” value (FCGR1a; 10 μM MGBG, all samples) of the same molecule?
A: Its value is 19.03 fold.

Q: And the “FCGR1A MIN” value (FCGR1a; 10 μM MGBG, all samples)?
A: The value was −17.15 fold.

Q: What about the “average OPN level in CCS” value (Human Osteopontin (OPN); AD PBMCs (n=1), 0.1 μM MGBG) of the same molecule?
A: The value was 0.477 ng/mL.

Q: And the “average OPN level in CCS” value (Human Osteopontin (OPN); AD PBMCs (n=1), 1 μM MGBG)?
A: Its value is 0.201 ng/mL.

Q: What about the “average OPN level in CCS” value (Human Osteopontin (OPN); AD PBMCs (n=1), 10 μM MGBG) of the same molecule?
A: The value was 0.136 ng/mL.

Q: And the “average OPN level in CCS” value (Human Osteopontin (OPN); AD PBMCs (n=1), 100 μM MGBG)?
A: The value was 0 ng/mL.

Q: And the “average CCS OPN value” (Human Osteopontin (OPN); AIDS Dementia PBMCs (AIRL2005-374), 10 μM MGBG)?
A: The value was 0.8905.

Q: What about the “average CCS OPN value” (Human Osteopontin (OPN); ALS PBMCs (n=2), 10 μM MGBG) of the same molecule?
A: Its value is 17.669.

Q: And the “average OPN level in CCS” value (Human Osteopontin (OPN); HIV PBMCs (n=2), 0.1 μM MGBG)?
A: Its value is 11.833 ng/mL.

Q: And the “average OPN level in CCS” value (Human Osteopontin (OPN); HIV PBMCs (n=2), 1 μM MGBG)?
A: Its value is 3.481 ng/mL.

Q: And the “average OPN level in CCS” value (Human Osteopontin (OPN); HIV PBMCs (n=2), 10 μM MGBG)?
A: Its value is 0.447 ng/mL.

Q: What about the “average OPN level in CCS” value (Human Osteopontin (OPN); HIV PBMCs (n=2), 100 μM MGBG) of the same molecule?
A: The value was 0 ng/mL.

Q: What about the “average OPN level in CCS” value (Human Osteopontin (OPN); breast cancer PBMCs (n=3), 0.1 μM MGBG) of the same molecule?
A: Its value is 20.89 ng/mL.

Q: And the “average OPN level in CCS” value (Human Osteopontin (OPN); breast cancer PBMCs (n=3), 1 μM MGBG)?
A: Its value is 8.87 ng/mL.

Q: And the “average OPN level in CCS” value (Human Osteopontin (OPN); breast cancer PBMCs (n=3), 10 μM MGBG)?
A: Its value is 2.12 ng/mL.

Q: And the “average OPN level in CCS” value (Human Osteopontin (OPN); breast cancer PBMCs (n=3), 100 μM MGBG)?
A: Its value is 0.84 ng/mL.

Q: What about the “average OPN level in CCS” value (Human Osteopontin (OPN); healthy/normal PBMCs (n=3), 0.1 μM MGBG) of the same molecule?
A: The value was 9.69 ng/mL.

Q: What about the “average OPN level in CCS” value (Human Osteopontin (OPN); healthy/normal PBMCs (n=3), 1 μM MGBG) of the same molecule?
A: Its value is 4.85 ng/mL.

Q: What about the “average OPN level in CCS” value (Human Osteopontin (OPN); healthy/normal PBMCs (n=3), 10 μM MGBG) of the same molecule?
A: The value was 1.07 ng/mL.

Q: What about the “average OPN level in CCS” value (Human Osteopontin (OPN); healthy/normal PBMCs (n=3), 100 μM MGBG) of the same molecule?
A: The value was 0.14 ng/mL.

Q: What about the “GPR43 expression median signal relative to no MGBG” value (GPR43) of the same molecule?
A: The value was 2.4.

Q: What about the “Fold change G1P3 by QRT-PCR” value (G1P3; [1]) of the same molecule?
A: The value was 1.92 fold and −1.25 fold (2×) and 1.31 fold and −2.03 fold and −1.14 fold (2×) and −2.04 fold and 2.13 fold and 1.22 fold (2×) and −2.99 fold and −6.63 fold and −1.95 fold and −2.85 fold and 1.47 fold and −1.66 fold and 1.68 fold.

Q: And the “G1P3 AVERAGE” value (G1P3; 10 μM MGBG, all samples)?
A: The value was 0.96 fold.

Q: What about the “G1P3 MAX” value (G1P3; 10 μM MGBG, all samples) of the same molecule?
A: The value was 2.13 fold.

Q: And the “G1P3 MIN” value (G1P3; 10 μM MGBG, all samples)?
A: Its value is −6.63 fold.

Q: And the “Fold change ADA by QRT-PCR” value (ADA; 10 μM MGBG overnight, untreated vs treated, negative = fold reduction, individual samples)?
A: Its value is 16.80 fold and 4.69 fold and 18.77 fold and 2.33 fold and 13.00 fold and 3.34 fold and 5.90 fold and 10.06 fold and 7.52 fold and 4.23 fold and 7.21 fold and 1.38 fold and −0.73 fold and 6.68 fold and 3.01 fold and 3.76 fold and 1.16 fold and 7.16 fold.

Q: And the “Fold change ADA, AVERAGE” value (ADA; [2])?
A: The value was 6.5 fold.

Q: And the “Fold change ADA, MAX” value (ADA; [2])?
A: Its value is 18.8 fold.

Q: What about the “Fold change ADA, MIN” value (ADA; [2]) of the same molecule?
A: Its value is −0.7 fold.

Q: What about the “ADA % >2 fold Changed” value (ADA; share of samples, 10 μM MGBG) of the same molecule?
A: The value was 83%.

Q: And the “ADA regulation by MGBG” value (ADA; upregulated in all but one sample)?
A: The value was “strongly induced”.

Q: And the “Fold change IL6 by QRT-PCR” value (IL6; [1])?
A: The value was −5.31 fold and 3.71 fold and 1.04 fold and 1.01 fold and −2.93 fold and −4.17 fold and 2.20 fold and 2.83 fold and −2.71 fold and −4.06 fold and 1.74 fold (2×) and 1.30 fold and 1.46 fold and −6.15 fold and −1.09 fold and −5.46 fold and 14.72 fold.

Q: What about the “IL6 AVERAGE” value (IL6; 10 μM MGBG, all samples) of the same molecule?
A: The value was 1.91 fold.

Q: And the “IL6 MAX” value (IL6; 10 μM MGBG, all samples)?
A: The value was 14.72 fold.

Q: What about the “IL6 MIN” value (IL6; 10 μM MGBG, all samples) of the same molecule?
A: The value was −6.15 fold.

Q: What about the “SIV-associated macrophages in the frontal cortex” value (SIVmac251; 4 doses of MGBG, compared to non-treated) of the same molecule?
A: The value was “absence of SIV-associated macrophages”.

Q: And the “macrophage infiltration in brains” value (SIVmac251; FIG. 9, treated infected macaques)?
A: Its value is “no pathology was observed”.

Q: And the “illness (AIDS and dementia)” value (SIVmac251; both trials, treated animals)?
A: The value was “none of the treated animals became ill”.

Q: What about the “SIVE or DRG infiltration” value (SIVmac251; first trial, 200, 300, 400 mg/m^2 weekly, 2 treated animals) of the same molecule?
A: The value was “no indications of SIVE or DRG infiltration”.

Q: What about the SIV disease (SIVmac251; second trial, bi-weekly 250 mg/m^2, 2 treated animals) of the same molecule?
A: Its SIV disease is “no evidence for SIV disease”.

Reference: US9867794B2, “Regulation of osteopontin” (Pathologica LLC, priority 2007, dated 2018)
